Data on 2 molecules can be found in US12077503B2, “Substituted cyclic amides and their use as herbicides” (FMC CORPORATION, priority 2015, dated 2024).

Read-outs that look alike come from different tables or passages of the source.

Format in all cases: in vivo
Experiment [1] concerns barnyardgrass (Echinochloa crus-galli). Description: Test A postemergence. The following applies: Echinochloa crus-galli, post-emergence, 240 h, 125 g ai/ha. The method in brief: (§1)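 Ratings of 0 (no effect) to 100 (complete control) come from visual comparison with untreated controls roughly 10 d after treatment. Test chemicals, formulated in a non-phytotoxic solvent mixture with surfactant, were applied either as a preemergence directed soil spray on seeded soil or postemergence to one- to two-leaf plants 2 to 10 cm tall.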

The subject of experiment [2] is Galium (catchweed bedstraw, Galium aparine). Description: Test A postemergence. The following applies: Galium, post-emergence, 240 h, 125 g ai/ha. The method in brief: as §1
Experiment [3] deals with corn (Zea mays). Description: Test A postemergence. Conditions: Zea mays, post-emergence, 240 h, 125 g ai/ha. The method in brief:
as §1

Experiment [4] relates to ragweed (common ragweed, Ambrosia elatior). Description: Test A postemergence. The following applies: Ambrosia artemisiifolia, post-emergence, 240 h, 125 g ai/ha. The method in brief: as §1
Experiment [5] concerns barnyardgrass (Echinochloa crus-galli). In words: Test B flooded paddy test. Conditions: Echinochloa crus-galli, Flood, 250 g ai/ha; scale of 0 to 100 where 0 is no effect and 100 is complete control; read-out: Barnyardgrass plant response rating. The method in brief: (§2)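 Visual ratings (0 none to 100 complete control) are relative to untreated plants, taken 13–15 d after treatment in a greenhouse. Test material went straight into floodwater standing 3 cm above the soil, kept constant, on plants at the 2-leaf stage.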

The test system of experiment [6] is sedge, umbrella (small-flower umbrella sedge, Cyperus difformis). Description: Test B flooded paddy test. The following applies: Cyperus difformis, Flood, 250 g ai/ha; scale of 0 to 100 where 0 is no effect and 100 is complete control; read-out: Sedge, Umbrella plant response rating. The method in brief:
as §2

Experiment [7] concerns ducksalad (Heteranthera limosa). In words: Test B flooded paddy test. The following applies: Heteranthera limosa, Flood, 250 g ai/ha; scale of 0 to 100 where 0 is no effect and 100 is complete control; read-out: Ducksalad plant response rating. The method in brief:
as §2

Experiment [8] relates to rice (Oryra sativa). Description: Test B flooded paddy test. Conditions: Oryza sativa, Flood, 250 g ai/ha; scale of 0 to 100 where 0 is no effect and 100 is complete control; read-out: Rice plant response rating. The method in brief:
as §2

For experiment [9], the system named is barnyardgrass (Echinochloa crus-galli). Description: Test A preemergence. Conditions: Echinochloa crus-galli, pre-emergence, 240 h; for pest or weed control at 125 g/ha: 125 g ai/ha; for pest or weed control at 500 g/ha: 500 g ai/ha. The method in brief:
as §1

Experiment [10] concerns giant foxtail (Setaria faberii). Description: Test A preemergence. Conditions: Setaria faberi, pre-emergence, 240 h; for pest or weed control at 125 g/ha: 125 g ai/ha; for pest or weed control at 500 g/ha: 500 g ai/ha. The method in brief: as §1
Experiment [11] relates to ryegrass, Italian (Italian ryegrass, Lolium multiflorum). In words: Test A preemergence. The following applies: Lolium multiflorum, pre-emergence, 240 h; for pest or weed control at 125 g/ha: 125 g ai/ha; for pest or weed control at 500 g/ha: 500 g ai/ha. The method in brief:
as §1

Experiment [12] deals with Kochia (Kochia scoparia). Description: Test A preemergence. Conditions: Bassia scoparia, pre-emergence, 240 h; for pest or weed control at 125 g/ha: 125 g ai/ha; for pest or weed control at 500 g/ha: 500 g ai/ha. The method in brief: as §1
Experiment [13] concerns ragweed (common ragweed, Ambrosia elatior). In words: Test A preemergence. The following applies: Ambrosia artemisiifolia, pre-emergence, 240 h; for pest or weed control at 125 g/ha: 125 g ai/ha; for pest or weed control at 500 g/ha: 500 g ai/ha. The method in brief:
as §1

Experiment [14] relates to pigweed (Amaranthus retroflexus). Description: Test A preemergence. Conditions: Amaranthus retroflexus, pre-emergence, 240 h; for pest or weed control at 125 g/ha: 125 g ai/ha; for pest or weed control at 500 g/ha: 500 g ai/ha.

For the molecule `O=C1NC[C@H](c2cc(F)c(C(F)(F)F)c(F)c2)[C@H]1C(=O)Nc1ccccc1F` [Compound 837], the pest or weed control at 125 g/ha stood at 90% in [1] (postemergence, visual injury rating after approximately 10 d, read-out: Barnyardgrass plant response rating (0 to 100 scale, 0 no effect, 100 complete control)); 50% in experiment [2] (postemergence, visual injury rating after approximately 10 d, read-out: Galium plant response rating (0 to 100 scale, 0 no effect, 100 complete control)); 10% in experiment [4] (postemergence, visual injury rating after approximately 10 d, read-out: Ragweed plant response rating (0 to 100 scale, 0 no effect, 100 complete control)); 90% in [9] (preemergence, 0 to 100 scale where 0 is no effect and 100 is complete control, read-out: Barnyardgrass plant response rating); 90% in [10] (preemergence, 0 to 100 scale where 0 is no effect and 100 is complete control, read-out: Foxtail, Giant plant response rating); 50% in experiment [11] (preemergence, 0 to 100 scale where 0 is no effect and 100 is complete control, read-out: Ryegrass, Italian plant response rating). The pest or weed control at 125 g/ha in experiment [12] (preemergence, 0 to 100 scale where 0 is no effect and 100 is complete control, read-out: Kochia plant response rating) worked out at 90%; in [13] (preemergence, 0 to 100 scale where 0 is no effect and 100 is complete control, read-out: Ragweed plant response rating) it was 70%; in [14] (preemergence, 0 to 100 scale where 0 is no effect and 100 is complete control, read-out: Pigweed plant response rating), 20%. Moreover, in experiment [3] (postemergence, visual injury rating after approximately 10 d, read-out: Corn plant response rating (0 to 100 scale, 0 no effect, 100 complete control)), the plant injury at 125 g/ha turned out to be 60%. Besides, the pest or weed control at 250 g/ha in experiment [5] was 0%; in [6], 0%; in experiment [7], 70%; in experiment [8] it was 0%. For the same molecule, the pest or weed control at 500 g/ha in experiment [9] (Preemergence, visual injury vs untreated controls after approximately 10 d, read-out: Barnyardgrass plant response rating (0 to 100 scale where 0 is no effect and 100 is complete control)) is 90%; in [10] (Preemergence, visual injury vs untreated controls after approximately 10 d, read-out: Foxtail, Giant plant response rating (0 to 100 scale where 0 is no effect and 100 is complete control)) it was 90%; in experiment [11] (Preemergence, visual injury vs untreated controls after approximately 10 d, read-out: Ryegrass, Italian plant response rating (0 to 100 scale where 0 is no effect and 100 is complete control)), 70%; in [12] (Preemergence, visual injury vs untreated controls after approximately 10 d, read-out: Kochia plant response rating (0 to 100 scale where 0 is no effect and 100 is complete control)), 90%; in experiment [13] (Preemergence, visual injury vs untreated controls after approximately 10 d, read-out: Ragweed plant response rating (0 to 100 scale where 0 is no effect and 100 is complete control)) it was 70%; in [14] (Preemergence, visual injury vs untreated controls after approximately 10 d, read-out: Pigweed plant response rating (0 to 100 scale where 0 is no effect and 100 is complete control)) it was 80%.

With `Cc1ccc([C@H]2CCNC(=O)[C@@H]2C(=O)Nc2cccc(F)c2F)cc1` [Compound 973], the pest or weed control at 125 g/ha in experiment [1] (Postemergence, visual injury after approximately 10 d, 0 to 100 scale where 0 is no effect and 100 is complete control, read-out: Plant response rating, Barnyardgrass) was determined as 30%; in experiment [2] (Postemergence, visual injury after approximately 10 d, 0 to 100 scale where 0 is no effect and 100 is complete control, read-out: Plant response rating, Galium), 50%; in experiment [4] (Postemergence, visual injury after approximately 10 d, 0 to 100 scale where 0 is no effect and 100 is complete control, read-out: Plant response rating, Ragweed), 0%; in [9] (Preemergence, visual injury rating after approximately 10 d, read-out: Barnyardgrass plant response rating (0 to 100 scale, 0 is no effect, 100 is complete control)), 90%; in [10] (Preemergence, visual injury rating after approximately 10 d, read-out: Foxtail, Giant plant response rating (0 to 100 scale, 0 is no effect, 100 is complete control)) it was 90%; in experiment [11] (Preemergence, visual injury rating after approximately 10 d, read-out: Ryegrass, Italian plant response rating (0 to 100 scale, 0 is no effect, 100 is complete control)), 0%. Moreover, the pest or weed control at 125 g/ha in experiment [12] (Preemergence, visual injury rating after approximately 10 d, read-out: Kochia plant response rating (0 to 100 scale, 0 is no effect, 100 is complete control)) stood at 0%; in experiment [13] (Preemergence, visual injury rating after approximately 10 d, read-out: Ragweed plant response rating (0 to 100 scale, 0 is no effect, 100 is complete control)) it was 0%; in [14] (Preemergence, visual injury rating after approximately 10 d, read-out: Pigweed plant response rating (0 to 100 scale, 0 is no effect, 100 is complete control)) it was 0%. The same molecule gave a Corn plant response rating (crop injury, 0 = no effect, 100 = complete kill) at 125 g/ha in experiment [3] (Postemergence, visual injury after approximately 10 d, 0 to 100 scale where 0 is no effect and 100 is complete control) of 0%. Further, the pest or weed control at 250 g/ha is 0% in experiment [5], 0% in experiment [6], 100% in experiment [7] and 0% in [8]. The pest or weed control at 500 g/ha in experiment [9] (preemergence, visual injury rating about 10 d after treatment, 0 to 100 scale (0 no effect, 100 complete control), read-out: Barnyardgrass plant response rating) was found to be 90%; in [10] (preemergence, visual injury rating about 10 d after treatment, 0 to 100 scale (0 no effect, 100 complete control), read-out: Foxtail, Giant plant response rating), 90%; in experiment [11] (preemergence, visual injury rating about 10 d after treatment, 0 to 100 scale (0 no effect, 100 complete control), read-out: Ryegrass, Italian plant response rating), 30%; in experiment [12] (preemergence, visual injury rating about 10 d after treatment, 0 to 100 scale (0 no effect, 100 complete control), read-out: Kochia plant response rating), 60%; in [13] (preemergence, visual injury rating about 10 d after treatment, 0 to 100 scale (0 no effect, 100 complete control), read-out: Ragweed plant response rating), 70%; in experiment [14] (preemergence, visual injury rating about 10 d after treatment, 0 to 100 scale (0 no effect, 100 complete control), read-out: Pigweed plant response rating), 0%.
